Assay results reported in US20210046082A1, “CRYSTALLINE FORMS OF QUINOLINE ANALOGS AND SALTS THEREOF, COMPOSITIONS, AND THEIR METHODS FOR USE” (Senhwa Biosciences, Inc., priority 2019, published 2021).
≈ marks a conversion by molar mass, not a printed value. Each block holds one molecule with its values, some of them ahead of it.

Columns and labels:
metastatic breast cancer = assay: Evaluation of predictive biomarkers of response to Compound I in patients; assay type: in vivo, human
Protocol: The duration on therapy at each dose level for evaluable patients is depicted in FIG. 15. 18 patients were diagnosed with metastatic breast cancer. […] This study was conducted to evaluate predictive biomarkers of response to Compound I and to explore the relationship between germline HRD aberrations and outcomes of Compound I treatments.

BRCA deficient cells = assay: Toxicity against BRCA deficient cells; assay type: cell-based; details: cell lines of different genetic backgrounds (colon, breast and ovary), mouse and human
[1] = test system: BRCA2 knockout tumor cells; assay: Xenograft model, BRCA2 knockout vs isogenic wild type; assay type: in vivo; details: BRCA2 knockout tumor cells in xenograft model compared with isogenic wild type control cells
[2] = Quick solubility analysis in pH 4.5 buffer; assay type: physicochemical; details: pH 4.5 buffer solution (25 mM sodium acetate, 25° C.), filtered, LC, pH changed to 5-6
Protocol: A quick solubility analysis was conducted on Compound I Polymorphs A and J (Table 3). Each sample was suspended in pH 4.5 buffer solution (25 mM sodium acetate, 25° C.) for 10 minutes and then filtered for LC (liquid chromatography) analysis.

[3] = Polymorphic equilibrium and transformation study in MeOH/PPW at 65° C. (XRPD); assay type: physicochemical
Protocol: Polymorphic equilibrium studies were performed using Compound I Polymorph A and Compound I Polymorph J. To a 3-neck 250 mL flask equipped with a 3 cm stir bar and N2 inlet, a 1:1 mixture of Compound I Polymorph A (5 g) and Compound I Polymorph J (5 g, sample shown in FIG. 1), MeOH (112.5 mL, 11.25 vol) and purified process water (PPW, 37.5 mL, 3.75 vol) were charged. The resulting mixture was stirred at room temperature for 10 min, and then heated to 65° C. and sampled at 2 hrs, 4 hrs, and 6 hrs and analyzed by XRPD analysis as shown in FIG. 7.
A polymorphic transformation study was also performed. To a 20 mL vial containing a 2 cm stir bar, Compound I Polymorph J (0.5 g, sample shown in FIG. 1), MeOH (5.6 mL, 11.25 vol) and PPW (1.9 mL, 3.75 vol) were charged. The resulting mixture was heated to 65° C. for 6 hrs. Upon completion, the slurry was filtered through a Buchner funnel, and the solid was collected for XRPD analysis as shown in FIG. 8.
As described in Example 1, Polymorph J crystals precipitated out around pH 9-10 during final pH adjustment step to pH 12-13. Polymorph J is then heated to 60° C. to 65° C. in MeOH/PPW (3:1) for approximately 4 hours and maintains its polymorphic form. Thus, substantially pure (polymorphic purity) Polymorph J in MeOH/PPW (3:1) is stable at 65° C. for at least 4 hours.

[4] = Heating of Polymorph J without solvent at 205° C.; assay type: physicochemical; details: 30 minutes
[5] = Stability test at 25° C./60% RH for 18 months (XRPD, DSC); assay type: physicochemical
Protocol: Further, stability of Polymorph J was analyzed in solution having the composition:
Sample Preparation: 37.5 kg of WFI was added to the compounding vessel at a temperature in the range of 15 to 30° C. Vigorously sparge WFI with nitrogen for no less than 30 minutes by placing the nitrogen sparging tubing at the bottom of the pressure vessel. Continue sparging in the vessel until dissolved oxygen content was <1 ppm. In a second pressure vessel was added 20.0 kg nitrogen sparged WFI and sucrose and mixed until dissolved while continuing nitrogen sparging, not less than 15 minutes. Nitrogen sparging continued as necessary until dissolved oxygen content was <1 ppm of the sucrose solution. To the sucrose solution, 813.8 g of 2 M HCl solution was slowly added and mixed for no less than 10 minutes after addition was complete. Add Compound I into the sucrose solution vessel and rinse container that contained Compound I with nitrogen sparged WFI. Mix solution until dissolved (no less than 15 min). Add 43.5 mL of 2 M HCl and mix for no less than 5 minutes. If solution is not visually dissolved, add another portion of 43.5 mL of 2M HCl and mix for no less than 5 minutes. Adjust pH, if necessary to 4.4-4.6 with 2M HCl or 1M NaOH solution prepared using nitrogen sparged WFI. Mix solution after each addition of 2M HCl or 1M NaOH. Adjust volume with nitrogen-sparged WFI as necessary. Pull a 10 mL sample to measure pH. If necessary, re-adjust pH to 4.4-4.6 using 2M HCl or 1M NaOH solution prepared using nitrogen sparged WFI. Filtration and filling directly proceeded this step. No material was stored overnight. […]
Aseptic filling of the sterile solution: The Compound I sterile solution was filled into 20-cc clean, de-pyrogenated glass vials, with periodic weight checks to assure that the target fill quantity (5.05 g/vial) was maintained, and the vials were semi-stoppered with sterile elastomeric closures to provide the sample for stability analysis.
The sample was stored at 25° C. in 60% relative humidity (RH) for 18 months. After 18 months, the sample was analyzed by XRPD and DSC (see FIGS. 10 and 11).

[6] = Polymorph conversion on heating in MeOH/PPW (3:1) under neutral conditions; assay type: physicochemical; details: about 60-65° C., 6 hours instead of 4
Protocol: In the procedure discussed in Example 1, the wet cake obtained in the Neutralization/Polymorph Formation step was vacuum dried at no more than 65° C. Then the dried Compound I (dried wet cake) was dissolved in DCM/MeOH (3/1, v/v) and purified on silica gel column eluting with DCM/MeOH (3/1, v/v). The fractions containing Compound I was collected and passed through an in-line filter. Then Compound I was precipitated from DCM/MeOH via solvent-swap with MeOH (under vacuum with the jacket temperature of no more than 30C). After the DCM was distilled off, Compound I in MeOH was filtered and the wet cake was washed with methanol. The wet cake was vacuum dried at no more than 65° C. Then the dried Compound I, which existed in Polymorph E, was stirred in MeOH/PPW (3:1) and heated at about 60° C. to about 65° C. for 4 hours. Then the temperature was cooled down to 20° C. to 30° C. and stirred at that temperature for no longer than 1 hour. […] In the final heating step, if the mixture is heated for 6 hours instead of 4 hours, Polymorph A was observed.
It is believed that Polymorph K was transformed from Polymorph E under neutral conditions. […] Thus, without bound to be any theory, Polymorph K is believe to be a metastable form between Polymorphs E and A.

Structure (SMILES): Cc1cnc(CNC(=O)c2c(=O)c3ccc(N4CCCN(C)CC4)nc3n3c2sc2ccccc23)cn1 [Compound I, 2-(4-Methyl-[1,4]diazepan-1-yl)-5-oxo-5H-7-thia-1,11b-diaza-benzo[c]fluorene-6-carboxylic acid (5-methyl-pyrazin-2-ylmethyl)-amide]
Response to treatment (metastatic breast cancer; patient with PALB2 mutation and BRCA2 mutation, 650 mg/m^2 on Day 1, Day 8, Day 15 of a 28 day cycle): partial response (PR)
Tumor shrinkage (metastatic breast cancer; patients with BRCA2 mutation, dose greater than or equal to 150 mg/m^2): tumor shrinkage were observed
Toxicity against BRCA deficient cells (BRCA deficient cells): specific toxicity against BRCA deficient cells
Therapeutic index of activity [1]: wide therapeutic index of activity

solubility at 10 min ([2]; sodium acetate buffer, 25 °C, pH 4.5, aqueous buffer, thermodynamic from solid): 29.3 mg/mL (≈ 57 mM)
Structure (SMILES): Cc1cnc(CNC(=O)c2c(=O)c3ccc(N4CCCN(C)CC4)nc3n3c2sc2ccccc23)cn1 [Polymorph A, 2-(4-Methyl-[1,4]diazepan-1-yl)-5-oxo-5H-7-thia-1,11b-diaza-benzo[c]fluorene-6-carboxylic acid (5-methyl-pyrazin-2-ylmethyl)-amide]
Relative thermodynamic stability of polymorphs ([3]; MeOH/PPW, 65° C.): more thermodynamically stable than Polymorph J

Solubility ([2]; 10 minutes): 28.6 mg/mL (≈ 55.7 mM)
Polymorphic form by XRPD after heating ([3]; MeOH/PPW, 65° C., 6 hrs): converted to Polymorph A
Time polymorphic form is stable ([3]; substantially pure Polymorph J in MeOH/PPW (3:1) at 65° C.): at least 4 hours
Crystallinity by XRPD after heating [4]: less crystalline
Time stable on storage [5]: at least 18 months
Shift of second endothermic DSC peak after storage versus initial sample ([5]; 18 months): about 5 °C
Structure (SMILES): Cc1cnc(CNC(=O)c2c(=O)c3ccc(N4CCCN(C)CC4)nc3n3c2sc2ccccc23)cn1 [Polymorph J, 2-(4-Methyl-[1,4]diazepan-1-yl)-5-oxo-5H-7-thia-1,11b-diaza-benzo[c]fluorene-6-carboxylic acid (5-methyl-pyrazin-2-ylmethyl)-amide]
XRPD pattern after storage ([5]; 18 months): substantially similar to the XRPD pattern of the initial sample

Polymorphic conversion upon prolonged heating [6]: converts to Polymorph A
Structure (SMILES): Cc1cnc(CNC(=O)c2c(=O)c3ccc(N4CCCN(C)CC4)nc3n3c2sc2ccccc23)cn1 [Polymorph K, 2-(4-Methyl-[1,4]diazepan-1-yl)-5-oxo-5H-7-thia-1,11b-diaza-benzo[c]fluorene-6-carboxylic acid (5-methyl-pyrazin-2-ylmethyl)-amide]
